Tests used:
OVCAR-8 cells = experiment: MTT assay of compound C with or without TNFα blocking antibody, OVCAR-8 cells; type: cell-based, human; settings: compound C+anti-TNFα antibody (MAB610) vs compound C alone, 72 hrs
Protocol: (§1) We have previously observed that our compounds promote rapid cIAP-1 degradation. Therefore, we hypothesized that degradation of cIAP-1 may result in autocrine activation of the death-receptor pathway by TNFα. To test this, we used TNFα blocking antibody in an MTT assay. Briefly, indicated ovarian cancer cell lines were seeded into 96-well cell culture plates at a density of 5,000 cells per well. The next day, anti-TNFα antibody (MAB610, R&D Systems, Minneapolis, Minn.) was added to cells at a final concentration of 10 µg/mL and allowed to incubate for 1 hr at 37° C., 5% CO2. Following incubation, a range of concentrations of the cIAP antagonist compound C was added to cells. Cells were incubated in the presence of compound C+anti-TNFα antibody or in the presence of compound C alone as a control for an additional 72 hrs. Following 72 hr incubation, MTT reagent (3-(4,5-dimethylthiazolyl-2)-2,5-diphenyltetrazolium bromide; SIGMA, St. Louis, Mo.) was added to all wells at a final concentration of 1 mg/mL and allowed to incubate for 2 hrs at 37° C., 5% CO2. Following a 2 hr incubation, all media was removed from wells and […] DMSO was added to solubilize formazan crystals. After a brief incubation at room temp on a microplate shaker, absorbance was measured at 570 nm using a Victor^2V fluorescent microplate reader (Perkin-Elmer, Turku, Finland). […]

SKOV3 cells = experiment: MTT assay of compound C with or without TNFα blocking antibody, SKOV3 cells; type: cell-based, human; settings: compound C+anti-TNFα antibody (MAB610) vs compound C alone, 72 hrs
Protocol: as §1

## CN[C@@H](C)C(=O)N[C@H](C(=O)N1C[C@@H](O)C[C@H]1CC1=C(C2=C(C[C@@H]3C[C@H](O)CN3C(=O)[C@@H](NC(=O)[C@H](C)NC)[C@@H](C)OC)c3ccc(F)cc3C2)Cc2cc(F)ccc21)[C@@H](C)OC [compound C]
OVCAR-8 cells
  effect of anti-TNFα antibody on cIAP antagonist induced cytotoxicity (CC50 curve, FIG. 1): abrogates cIAP antagonist induced cytotoxicity
SKOV3 cells
  effect of anti-TNFα antibody on cIAP antagonist induced cytotoxicity (CC50 curve, FIG. 2): abrogates cIAP antagonist induced cytotoxicity

Source: patent publication US20110008802A1, “TNFalpha GENE EXPRESSION AS A BIOMARKER OF SENSITIVITY TO ANTAGONISTS OF INHIBITOR OF APOPTOSIS PROTEINS” (TETRALOGIC PHARMACEUTICALS CORP., priority 2007, published 2011)
